Measurements as given in patent US20140213567A1, “TAZOBACTAM ARGININE ANTIBIOTIC COMPOSITIONS” (Cubist Pharmaceuticals, Inc., priority 2012, published 2014).

Assay: Hygroscopicity of solid form
Assay type: physicochemical
Details: relative to amorphous tazobactam arginine and amorphous tazobactam sodium

## C[C@]1(Cn2ccnn2)[C@H](C(=O)O)N2C(=O)CC2S1(=O)=O (stereo partly shown) [Tazobactam arginine polymorph Ia, Tazobactam Arginine]
  hygroscopicity: low hygroscopicity
